Patent US8168651B2, “Protein kinase modulators” (Cylene Pharmaceuticals, Inc., priority 2008, dated 2012)

Tests used:
recombinant human CK2 = recombinant human CK2 (Homo sapiens (Human), UniProt P68400); assay: CK2 assay (cell-free, 33P-ATP filter plate); assay type: biochemical; conditions: 500 nM compound, cell-free assay; read-out: CK2: % inh 500 nM
MV-4-11 = assay: Cell proliferation modulatory activity, MV-4-11; assay type: cell-based; conditions: Homo sapiens, MV4-11; MV-4-11 cells
K-562 = assay: Cell proliferation modulatory activity, K-562; assay type: cell-based; conditions: Homo sapiens, K562; K-562 cells
[1] = tested on: HCT-116 human colorectal carcinoma cells; assay: Cell-proliferation assay using Alamar Blue dye; assay type: cell-based; conditions: Homo sapiens, HCT-116, second HCT-116 column (c8); read-out: HCT-116 (uM) cell proliferation modulatory activity;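 further: cells exposed to compound for about 4 days, then Alamar Blue added and dye fluorescence read after about 4 h, compared with medium-only control wells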
recombinant human PIM1 = recombinant human PIM1 (Homo sapiens (Human), UniProt P11309); assay: PIM-1 kinase activity in cell-free in vitro assay; assay type: biochemical; conditions: cell-free assay; for inhibition at 0.5 µM: 500 nM compound, read-out: PIM-1: % inh 500 nM
Sequence of recombinant human PIM1 (P11309 whole entry): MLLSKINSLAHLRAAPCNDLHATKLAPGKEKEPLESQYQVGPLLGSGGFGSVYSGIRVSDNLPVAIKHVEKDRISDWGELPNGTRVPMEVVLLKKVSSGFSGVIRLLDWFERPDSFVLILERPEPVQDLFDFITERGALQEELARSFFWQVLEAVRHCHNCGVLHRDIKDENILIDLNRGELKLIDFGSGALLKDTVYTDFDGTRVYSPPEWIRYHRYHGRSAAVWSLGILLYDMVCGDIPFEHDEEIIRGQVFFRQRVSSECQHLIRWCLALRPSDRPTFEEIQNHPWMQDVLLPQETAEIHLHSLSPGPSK

Sequence of recombinant human CK2 (P68400 whole entry): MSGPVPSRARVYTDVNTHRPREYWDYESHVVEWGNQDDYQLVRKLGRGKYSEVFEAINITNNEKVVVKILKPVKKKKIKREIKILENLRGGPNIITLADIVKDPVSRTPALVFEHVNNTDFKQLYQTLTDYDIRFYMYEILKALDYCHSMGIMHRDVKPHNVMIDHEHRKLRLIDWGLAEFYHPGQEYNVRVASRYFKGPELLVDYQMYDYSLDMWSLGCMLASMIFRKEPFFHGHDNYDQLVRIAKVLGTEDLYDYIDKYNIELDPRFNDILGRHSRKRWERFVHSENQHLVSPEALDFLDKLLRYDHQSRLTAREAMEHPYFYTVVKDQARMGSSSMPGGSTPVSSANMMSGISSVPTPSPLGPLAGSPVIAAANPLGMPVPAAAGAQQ
Sequence of recombinant human CK2 (P67870 whole entry partner): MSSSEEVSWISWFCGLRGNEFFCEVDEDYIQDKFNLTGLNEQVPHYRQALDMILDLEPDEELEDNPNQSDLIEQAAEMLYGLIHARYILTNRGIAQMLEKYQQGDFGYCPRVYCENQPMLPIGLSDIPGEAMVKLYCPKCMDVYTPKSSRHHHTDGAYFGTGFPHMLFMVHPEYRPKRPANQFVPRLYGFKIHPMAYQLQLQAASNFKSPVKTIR

Compound | inhibition at 0.5 µM (recombinant human CK2) [%] | IC50 (MV-4-11) [µM] | IC50 (K-562) [µM] | IC50 [1] [µM] | inhibition at 0.5 µM (recombinant human PIM1) [%] | IC50 (recombinant human PIM1) [nM]
CN(C)CCCN(C)c1nc2cc(-c3nnn[nH]3)ccc2c2sccc12 | 60.1 | > 10 | > 10 | > 10 | 70.5 | 221
CC1(C)CC(Nc2nc3cc(-c4nnn[nH]4)ccc3c3sccc23)CC(C)(C)N1 | -5.33 | > 10 | > 10 | > 10 | 32.7 | –
CCN1CCCC1CNc1nc2cc(-c3nnn[nH]3)ccc2c2sccc12 (stereo not shown) | 55.7 | 0.174 | 0.175 | 0.397 | 103 | 98
NC1CCN(c2nc3cc(-c4nnn[nH]4)ccc3c3sccc23)C1 (stereo not shown) | 30.8 | 1.15 | > 10 | > 10 | 63.6 | 489
c1cc2c(N3CCC(N4CCCC4)CC3)nc3cc(-c4nnn[nH]4)ccc3c2s1 | 38.6 | 1.07 | > 10 | > 10 | 90 | 119
c1ccc(CNc2nc3cc(-c4nnn[nH]4)ccc3c3sccc23)nc1 | 27.9 | 1 | > 10 | > 10 | 16.8 | –
CN(C)CCNc1nc2cc(C#N)ccc2c2sc(Br)cc12 | -7.27 | 0.588 | 0.719 | 0.704 | 12.1 | –
CN(C)CCNc1nc2cc(-c3nnn[nH]3)ccc2c2sc(Br)cc12 | 24.8 | > 10 | > 10 | > 10 | 60.7 | 656
CN1CCN(c2nc3cc(-c4nnn[nH]4)ccc3c3sccc23)CC1 | 7.3 | > 10 | > 10 | > 10 | 81.3 | 178
CN(C)CCNc1nc2cc(-c3nnc[nH]3)ccc2c2sccc12 | -76.9 | 6.04 | > 10 | > 10 | -2.14 | –
CCCNc1nc2cc(-c3nnn[nH]3)ccc2c2sccc12 | 31.1 | > 10 | > 10 | > 10 | 59.1 | > 1100
c1cc2c(NCCN3CCCCC3)nc3cc(-c4nnn[nH]4)ccc3c2s1 | 37.1 | > 10 | > 10 | > 10 | 81.1 | 313
c1cc2c(NCC3CCCN3)nc3cc(-c4nnn[nH]4)ccc3c2s1 (stereo not shown) | 86.1 | > 10 | > 10 | > 10 | 93.4 | 46
CCN(CC)CCNc1nc2cc(-c3nnn[nH]3)ccc2c2sccc12 | 52.6 | > 10 | > 10 | > 10 | 87.3 | 127
N#Cc1ccc2c(c1)[nH]c(=O)c1cscc12 | -0.336 | > 10 | > 10 | > 10 | -26.7 | –
N#Cc1ccc2c(c1)nc(Cl)c1cscc12 | -6.52 | 1.81 | > 10 | > 10 | -20.3 | –
N#Cc1ccc2c(c1)nc(Nc1cccc(Cl)c1)c1cscc12 | -9.4 | > 10 | > 10 | > 10 | -32.8 | –
N#Cc1ccc2c(c1)nc(Nc1ccc(F)cc1)c1cscc12 | 9.21 | > 10 | > 10 | > 10 | -6.77 | –
N#Cc1ccc2c(c1)nc(Nc1cccc(F)c1)c1cscc12 | -20.1 | > 10 | 8.04 | > 10 | -28.6 | –
N#Cc1ccc2c(c1)nc(Nc1ccc(Cl)cc1)c1cscc12 | -2.49 | > 10 | > 10 | > 10 | -35.8 | –

The next lines start with the values.

inhibition at 0.5 µM (recombinant human CK2) [%] | IC50 (MV-4-11) [µM] | IC50 (K-562) [µM] | IC50 [1] [µM] | inhibition at 0.5 µM (recombinant human PIM1) [%] | IC50 (recombinant human PIM1) [nM] | Compound
1.98 | > 10 | > 10 | > 10 | 2.44 | – | CC(C)(C)OC(=O)N1CCC(Nc2nc3cc(C#N)ccc3c3sccc23)CC1
27.1 | 1.26 | > 10 | 3.15 | 70.1 | 416 | N#Cc1ccc2c(c1)nc(NC1CCNCC1)c1ccsc12
11 | > 10 | > 10 | > 10 | 10 | – | CC(C)(C)OC(=O)NC1CCN(c2nc3cc(C#N)ccc3c3sccc23)C1 (stereo not shown)
-2.47 | > 10 | > 10 | > 10 | 9.1 | – | N#Cc1ccc2c(c1)nc(N1CCC(N)C1)c1ccsc12 (stereo not shown)
-8.22 | 7.52 | > 10 | 3.44 | 59.1 | 1030 | CN1CCC(Nc2nc3cc(C#N)ccc3c3sccc23)CC1
-35 | > 10 | > 10 | > 10 | -30.9 | – | CC(C)(C)OC(=O)N1CCN(c2nc3cc(C#N)ccc3c3sccc23)CC1
-27.3 | 9.33 | > 10 | 4.09 | 7.88 | – | N#Cc1ccc2c(c1)nc(N1CCNCC1)c1ccsc12
-11.5 | > 10 | > 10 | > 10 | -30.8 | – | CC(C)(C)OC(=O)NCCCNc1nc2cc(C#N)ccc2c2sccc12
61.4 | > 10 | > 10 | 2.51 | 76.6 | 129 | N#Cc1ccc2c(c1)nc(NCCCN)c1ccsc12
-35.2 | > 10 | > 10 | > 10 | -14.7 | – | CC(C)(C)OC(=O)N1CCCC1CNc1nc2cc(C#N)ccc2c2sccc12 (stereo not shown)
-23.8 | 2.44 | > 10 | 2.73 | 14.1 | – | N#Cc1ccc2c(c1)nc(NCC1CCCN1)c1ccsc12 (stereo not shown)
-22.4 | > 10 | > 10 | > 10 | -13 | – | CC(C)(C)OC(=O)N1CCCC1CCNc1nc2cc(C#N)ccc2c2sccc12 (stereo not shown)
37.1 | 2.82 | > 10 | 1.87 | 36.2 | – | N#Cc1ccc2c(c1)nc(NCCC1CCCN1)c1ccsc12 (stereo not shown)
-17.1 | > 10 | > 10 | > 10 | -19 | – | CN(c1nc2cc(C#N)ccc2c2sccc12)C(C1CC1)C1CC1
8.24 | 0.535 | > 10 | > 10 | 5.73 | – | CNC(=O)c1ccc2c(c1)nc(NCCN(C)C)c1ccsc12
1.39 | > 10 | 1.89 | 2.34 | 13.7 | – | CN(C)CCNc1nc2cc(C(=O)NC3CC3)ccc2c2sccc12
11.8 | 0.999 | > 10 | > 10 | -3.56 | – | CN(C)CCNc1nc2cc(C(=O)N(C)C)ccc2c2sccc12
15.6 | 0.402 | 0.198 | 4.29 | 34 | – | CN(C)CCNc1nc2cc(C(N)=O)ccc2c2sccc12
1.28 | > 10 | > 10 | > 10 | 83.9 | 161 | CN1CCC(Nc2nc3cc(-c4nnn[nH]4)ccc3c3sccc23)CC1
31.4 | 0.658 | > 10 | > 10 | 90.9 | 109 | CN1CCCC(Nc2nc3cc(-c4nnn[nH]4)ccc3c3sccc23)C1 (stereo not shown)
-0.704 | 0.73 | 1.09 | 1.52 | -6.89 | – | COC(=O)c1ccc2c(c1)nc(NCCN(C)C)c1ccsc12
-21.2 | > 10 | > 10 | > 10 | 85.7 | 78 | c1cc2c(NC3CCNCC3)nc3cc(-c4nnn[nH]4)ccc3c2s1
27 | > 10 | > 10 | > 10 | 35 | – | CC(C)(C)OC(=O)N1CCCC1CNc1nc2cc(-c3nnn[nH]3)ccc2c2sccc12 (stereo not shown)
-10.6 | > 10 | > 10 | > 10 | -3.1 | – | CN(C)CCNc1nc2cc(C(=O)NC3CCCCC3)ccc2c2sccc12
-12.9 | > 10 | > 10 | > 10 | -3.76 | – | COCCNC(=O)c1ccc2c(c1)nc(NCCN(C)C)c1ccsc12
32.8 | > 10 | > 10 | > 10 | 90.9 | 64 | CN1CCCCC1CNc1nc2cc(-c3nnn[nH]3)ccc2c2sccc12 (stereo not shown)
